This note sets out measurements from patent US10053417B2, “Neprilysin inhibitors” (THERAVANCE BIOPHARMA R&D IP, LLC, priority 2013, dated 2018).

The structures appear in SMILES notation.

As usually defined, the Ki is the equilibrium dissociation constant of an inhibitor or competing ligand from its target.

The target in this test is T1, human NEP (Homo sapiens, UniProt P08473).
T1 construct: purchased R&D Systems, Minneapolis, Minn; 1182-ZN
Kind of test: In vitro enzyme inhibition assay, inhibitor potency at human NEP (Assay 1). Format: biochemical. To be noted: recombinant human NEP; fluorogenic peptide substrate 10 μM; 37° C.; values given as ranges. The procedure:
The inhibitory activities of compounds at human and rat neprilysin (EC 3.4.24.11; NEP) and human angiotensin converting enzyme (ACE) were determined using in vitro assays as described below.
Recombinant human NEP and recombinant human ACE were obtained commercially (R&D Systems, Minneapolis, Minn., catalog numbers 1182-ZN and 929-ZN, respectively). The fluorogenic peptide substrate Mca-D-Arg-Arg-Leu-Dap-(Dnp)-OH (Medeiros et al. (1997) Braz. J. Med. Biol. Res. 30:1157-62; Anaspec, San Jose, Calif.) and Abz-Phe-Arg-Lys(Dnp)-Pro-OH (Araujo et al. (2000) Biochemistry 39:8519-8525; Bachem, Torrance, Calif.) were used in the NEP and ACE assays respectively.
The assays were performed in 384-well white opaque plates at 37° C. using the fluorogenic peptide substrates at a concentration of 10 μM in Assay Buffer (NEP: 50 mM HEPES, pH 7.5, 100 mM NaCl, 0.01% polyethylene glycol sorbitan monolaurate (Tween-20), 10 μM ZnSO4; ACE: 50 mM HEPES, pH 7.5, 100 mM NaCl, 0.01% Tween-20, 1 μM ZnSO4).
Test compounds were assayed over the range of concentrations from […] to 20 μM. Test compounds were added to the enzymes and incubated for 30 minute at 37° C. prior to initiating the reaction by the addition of substrate. Reactions were terminated after 20 minutes of incubation at 37° C. by the addition of glacial acetic acid to a final concentration of 3.6% (v/v).
Plates were read on a fluorometer with excitation and emission wavelengths set to 320 nm and 405 nm, respectively. Inhibition constants were obtained by nonlinear regression of the data using the equation (GraphPad Software, Inc., San Diego, Calif.): ν=ν0/[1+(I/K′)] where ν is the reaction rate, ν0 is the uninhibited reaction rate, I is the inhibitor concentration and K′ is the apparent inhibition constant.
Compounds of the invention were tested in this assay and found to have pKi values at human NEP as follows.

T1 sequence (P08473 52-750 limits assumed): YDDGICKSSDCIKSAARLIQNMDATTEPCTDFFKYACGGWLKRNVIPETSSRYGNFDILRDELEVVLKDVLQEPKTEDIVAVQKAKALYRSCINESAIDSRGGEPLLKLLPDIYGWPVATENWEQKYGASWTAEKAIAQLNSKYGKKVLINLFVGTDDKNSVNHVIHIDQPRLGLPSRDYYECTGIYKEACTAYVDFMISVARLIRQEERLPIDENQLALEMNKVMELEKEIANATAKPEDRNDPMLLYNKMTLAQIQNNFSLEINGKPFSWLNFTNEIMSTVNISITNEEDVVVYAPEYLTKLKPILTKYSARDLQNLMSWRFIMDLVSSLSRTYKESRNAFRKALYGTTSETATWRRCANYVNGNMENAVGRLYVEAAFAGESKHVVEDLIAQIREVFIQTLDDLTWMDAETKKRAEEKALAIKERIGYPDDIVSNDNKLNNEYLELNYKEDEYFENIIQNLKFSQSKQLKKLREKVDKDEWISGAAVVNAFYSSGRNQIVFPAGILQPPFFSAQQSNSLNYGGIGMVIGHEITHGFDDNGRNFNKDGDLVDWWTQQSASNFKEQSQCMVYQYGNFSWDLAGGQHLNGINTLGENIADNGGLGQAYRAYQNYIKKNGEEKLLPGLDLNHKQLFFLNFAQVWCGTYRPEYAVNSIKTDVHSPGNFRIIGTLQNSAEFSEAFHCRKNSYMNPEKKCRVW

For the compound `C[C@@H]1CN(C(=O)C(=O)N[C@H](Cc2ccc(-c3cccc(Cl)c3)cc2)C[C@@H](O)C(=O)O)C[C@H](C)O1` [Example 4-45, (2R,4R)-5-(3′-Chlorobiphenyl-4-yl)-4-[2-((2R,6S)-2,6-dimethylmorpholin-4-yl)-2-oxo-acetylamino]-2-hydroxypentanoic acid], the Ki was 0.001 to 0.01 µM.

Turning to `C[C@@H]1CO[C@@H](C)CN1C(=O)C(=O)N[C@H](Cc1ccc(-c2cccc(Cl)c2)cc1)C[C@@H](O)C(=O)O` [Example 4-46, (2R,4R)-5-(3′-Chlorobiphenyl-4-yl)-4-[2-((2S,5R)-2,5-dimethylmorpholin-4-yl)-2-oxo-acetylamino]-2-hydroxypentanoic acid], the Ki is 0.001 to 0.01 µM.

With `C[C@H]1COC[C@H](C)N1C(=O)C(=O)N[C@H](Cc1ccc(-c2cccc(Cl)c2)cc1)C[C@@H](O)C(=O)O` [Example 4-47, (2R,4R)-5-(3′-Chlorobiphenyl-4-yl)-4-[2-((3S,5S)-3,5-dimethylmorpholin-4-yl)-2-oxo-acetylamino]-2-hydroxypentanoic acid], the inhibition constant (Ki) was 0.001 to 0.01 µM.

On to `O=C(N[C@H](Cc1ccc(-c2cccc(Cl)c2)cc1)C[C@@H](O)C(=O)O)C(=O)N1CCCO1` [Example 4-48, (2R,4R)-5-(3′-Chlorobiphenyl-4-yl)-2-hydroxy-4-(2-isoxazolidin-2-yl-2-oxo-acetylamino)pentanoic acid], for which the Ki was 0.001 to 0.01 µM.

Turning to `O=C(N[C@H](Cc1ccc(-c2cccc(Cl)c2)cc1)C[C@@H](O)C(=O)O)C(=O)N1CC(O)CO1` (stereo partly drawn) [Example 4-49, (2R,4R)-5-(3′-Chlorobiphenyl-4-yl)-2-hydroxy-4-[2-(4-hydroxyisoxazolidin-2-yl)-2-oxo-acetylamino]pentanoic acid], the Ki was 0.001 to 0.01 µM.

On to `O=C(N[C@H](Cc1ccc(-c2cccc(Cl)c2)cc1)C[C@@H](O)C(=O)O)C(=O)N1CC2(COC2)C1` [Example 4-50, (2R,4R)-5-(3′-Chlorobiphenyl-4-yl)-2-hydroxy-4-[2-(2-oxa-6-aza-spiro[3.3]hept-6-yl)-2-oxo-acetylamino]pentanoic acid], for which the Ki is 0.01 to 0.0316 µM.

Regarding `O=C(NNc1ccc([N+](=O)[O-])cc1[N+](=O)[O-])C(=O)N[C@H](Cc1ccc(-c2cccc(Cl)c2)cc1)C[C@@H](O)C(=O)O` [Example 5, (2R,4R)-5-(3′-Chlorobiphenyl-4-yl)-4-{[N′-(2,4-dinitrophenyl)-hydrazinooxalyl]-amino}-2-hydroxypentanoic Acid], the Ki was at most 0.001 µM.

Consider `CNNC(=O)C(=O)N[C@H](Cc1ccc(-c2cccc(Cl)c2)cc1)C[C@@H](O)C(=O)O` [Example 6-1, (2R,4R)-5-(3′-Chlorobiphenyl-4-yl)-2-hydroxy-4-[(N′-methylhydrazinooxalyl)-amino]pentanoic acid], for which the Ki is 0.01 to 0.0316 µM.

Take `CC(C)CNNC(=O)C(=O)N[C@H](Cc1ccc(-c2cccc(Cl)c2)cc1)C[C@@H](O)C(=O)O` [Example 6-2, (2R,4R)-5-(3′-Chlorobiphenyl-4-yl)-2-hydroxy-4-[(N′-isobutylhydrazinooxalyl)-amino]pentanoic acid]: the Ki was 0.01 to 0.0316 µM.

`O=C(NNc1ccncc1)C(=O)N[C@H](Cc1ccc(-c2cccc(Cl)c2)cc1)C[C@@H](O)C(=O)O` [Example 6-3, (2R,4R)-5-(3′-Chlorobiphenyl-4-yl)-2-hydroxy-4-[(N′-pyridin-4-yl-hydrazino-oxalyl)-amino]pentanoic acid]: the Ki is 0.001 to 0.01 µM.

Take `O=C(NNc1cccnc1)C(=O)N[C@H](Cc1ccc(-c2cccc(Cl)c2)cc1)C[C@@H](O)C(=O)O` [Example 6-4, (2R,4R)-5-(3′-Chlorobiphenyl-4-yl)-2-hydroxy-4-[(N′-pyridin-3-yl-hydrazino-oxalyl)-amino]pentanoic acid]: the Ki is 0.001 to 0.01 µM.

`O=C(NNc1cc(O)ncn1)C(=O)N[C@H](Cc1ccc(-c2cccc(Cl)c2)cc1)C[C@@H](O)C(=O)O` [Example 6-5, (2R,4R)-5-(3′-Chlorobiphenyl-4-yl)-2-hydroxy-4-{[N′-(6-hydroxy-pyrimidin-4-yl)-hydrazinooxalyl]amino}-pentanoic acid]: the Ki was 0.001 to 0.01 µM.

Take `O=C(NNC1=NCCN1)C(=O)N[C@H](Cc1ccc(-c2cccc(Cl)c2)cc1)C[C@@H](O)C(=O)O` [Example 6-6, (2R,4R)-5-(3′-Chlorobiphenyl-4-yl)-4-{[N′-(4,5-dihydro-1H-imidazol-2-yl)-hydrazinooxalyl]-amino}-2-hydroxypentanoic acid]: the Ki was 0.01 to 0.0316 µM.

With `O=C(NNc1ccccc1Cl)C(=O)N[C@H](Cc1ccc(-c2cccc(Cl)c2)cc1)C[C@@H](O)C(=O)O` [Example 6-7, (2R,4R)-5-(3′-Chlorobiphenyl-4-yl)-4-{[N′-(2-chloro-phenyl)-hydrazinooxalyl]-amino}-2-hydroxypentanoic acid], the Ki is 0.001 to 0.01 µM.

With `O=C(NNc1ccccc1F)C(=O)N[C@H](Cc1ccc(-c2cccc(Cl)c2)cc1)C[C@@H](O)C(=O)O` [Example 6-8, (2R,4R)-5-(3′-Chlorobiphenyl-4-yl)-4-{[N′-(2-fluoro-phenyl)-hydrazinooxalyl]-amino}-2-hydroxypentanoic acid], the Ki is 0.001 to 0.01 µM.

Turning to `O=C(NNc1cccc(Cl)c1)C(=O)N[C@H](Cc1ccc(-c2cccc(Cl)c2)cc1)C[C@@H](O)C(=O)O` [Example 6-9, (2R,4R)-5-(3′-Chlorobiphenyl-4-yl)-4-{[N′-(3-chloro-phenyl)-hydrazinooxalyl]-amino}-2-hydroxypentanoic acid], the Ki is 0.001 to 0.01 µM.

Take `Cc1ccccc1NNC(=O)C(=O)N[C@H](Cc1ccc(-c2cccc(Cl)c2)cc1)C[C@@H](O)C(=O)O` [Example 6-10, (2R,4R)-5-(3′-Chlorobiphenyl-4-yl)-2-hydroxy-4-[(N′-o-tolyl-hydrazinooxalyl)-amino]-pentanoic acid]: the Ki was 0.001 to 0.01 µM.

Regarding `Cc1ccc(NNC(=O)C(=O)N[C@H](Cc2ccc(-c3cccc(Cl)c3)cc2)C[C@@H](O)C(=O)O)cc1` [Example 6-11, (2R,4R)-5-(3′-Chlorobiphenyl-4-yl)-2-hydroxy-4-[(N′-p-tolyl-hydrazinooxalyl)-amino]-pentanoic acid], the Ki is 0.001 to 0.01 µM.

Turning to `O=C(NNc1ccc(F)cc1)C(=O)N[C@H](Cc1ccc(-c2cccc(Cl)c2)cc1)C[C@@H](O)C(=O)O` [Example 6-12, (2R,4R)-5-(3′-Chlorobiphenyl-4-yl)-4-{[N′-(4-fluoro-phenyl)-hydrazinooxalyl]-amino}-2-hydroxypentanoic acid], the Ki was 0.001 to 0.01 µM.

Regarding `O=C(NNc1ccc(Cl)cc1)C(=O)N[C@H](Cc1ccc(-c2cccc(Cl)c2)cc1)C[C@@H](O)C(=O)O` [Example 6-13, (2R,4R)-5-(3′-Chlorobiphenyl-4-yl)-4-{[N′-(4-chloro-phenyl)-hydrazinooxalyl]-amino}-2-hydroxypentanoic acid], the Ki was 0.001 to 0.01 µM.

Consider `O=C(NNc1ccc(Br)cc1)C(=O)N[C@H](Cc1ccc(-c2cccc(Cl)c2)cc1)C[C@@H](O)C(=O)O` [Example 6-14, (2R,4R)-4-{[N′-(4-Bromophenyl)-hydrazinooxalyl]-amino}-5-(3′-chlorobiphenyl-4-yl)-2-hydroxypentanoic acid], for which the Ki is 0.001 to 0.01 µM.

In the case of `COc1ccc(NNC(=O)C(=O)N[C@H](Cc2ccc(-c3cccc(Cl)c3)cc2)C[C@@H](O)C(=O)O)cc1` [Example 6-15, (2R,4R)-5-(3′-Chlorobiphenyl-4-yl)-2-hydroxy-4-{[N′-(4-methoxyphenyl)-hydrazinooxalyl]amino}pentanoic acid], the Ki is 0.001 to 0.01 µM.

Consider `Cc1cccc(NNC(=O)C(=O)N[C@H](Cc2ccc(-c3cccc(Cl)c3)cc2)C[C@@H](O)C(=O)O)c1` [Example 6-16, (2R,4R)-5-(3′-Chlorobiphenyl-4-yl)-2-hydroxy-4-[(N′-m-tolylhydrazinooxalyl)-amino]pentanoic acid], for which the Ki is 0.001 to 0.01 µM.

Take `O=C(NNc1ccccc1)C(=O)N[C@H](Cc1ccc(-c2cccc(Cl)c2)cc1)C[C@@H](O)C(=O)O` [Example 6-17, (2R,4R)-5-(3′-Chlorobiphenyl-4-yl)-2-hydroxy-4-[(N′-phenylhydrazinooxalyl)-amino]pentanoic acid]: the Ki was 0.001 to 0.01 µM.

For the compound `O=C(NNC(=O)c1ccccc1O)C(=O)N[C@H](Cc1ccc(-c2cccc(Cl)c2)cc1)C[C@@H](O)C(=O)O` [Example 7, (2R,4R)-5-(3′-Chlorobiphenyl-4-yl)-2-hydroxy-4-{2-[N′-(2-hydroxybenzoyl)hydrazino]-2-oxo-acetylamino}pentanoic Acid], the Ki was at most 0.001 µM.

In the case of `O=C(NNC(=O)C(=O)N[C@H](Cc1ccc(-c2cccc(Cl)c2)cc1)C[C@@H](O)C(=O)O)OCc1ccccc1` [Example 8-1, (2R,4R)-4-[2-(N′-Benzyloxycarbonyl-hydrazino)-2-oxo-acetylamino]-5-(3′-chloro-biphenyl-4-yl)-2-hydroxypentanoic acid], the Ki was 0.01 to 0.0316 µM.
